Paper PMC12738692, “Identification, characterization, and structure-activity relationship of the ASIC3-selective peptide WRPRFa” (Communications Chemistry, 2025)
Changes are numbered by the printed parent chain. Where no end group is shown, it is not given here.

How the values were obtained:
[1] = molecular target: T1, ASIC3 E416Q (Homo sapiens, UniProt Q9UHC3, E416Q); test: MPC peptide activity on ASIC3 E416Q mutant (incl. double mutant cycle); assay type: cell-based; conditions: read-out: EC50 (95% CI)
T1 construct: human ASIC3 (NM_004769.4); P2A-mCherry reporter (C, cleaved yes); expressed in transfected cells; host or cells: CHO cells (85050302, Sigma), transient transfection
T1 sequence (Q9UHC3 1-531 E416Q): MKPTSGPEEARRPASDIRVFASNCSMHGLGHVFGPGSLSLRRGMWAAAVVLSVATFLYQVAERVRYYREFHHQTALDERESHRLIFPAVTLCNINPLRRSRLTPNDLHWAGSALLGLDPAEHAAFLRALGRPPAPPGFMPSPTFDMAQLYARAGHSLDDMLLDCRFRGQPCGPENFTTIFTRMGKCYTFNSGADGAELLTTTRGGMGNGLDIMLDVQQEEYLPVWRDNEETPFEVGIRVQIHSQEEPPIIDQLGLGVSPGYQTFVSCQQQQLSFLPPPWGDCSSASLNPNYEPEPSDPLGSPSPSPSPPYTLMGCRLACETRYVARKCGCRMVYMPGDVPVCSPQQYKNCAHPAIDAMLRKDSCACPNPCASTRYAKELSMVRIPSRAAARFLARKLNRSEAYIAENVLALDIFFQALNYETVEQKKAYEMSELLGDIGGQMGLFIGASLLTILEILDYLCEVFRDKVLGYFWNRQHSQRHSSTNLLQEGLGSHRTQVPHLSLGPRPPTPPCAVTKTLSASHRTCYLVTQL
Description: (§1) We individually mutated the four glutamates to glutamine to remove their charge but maintain the side chain structure (Fig. 4C). We tested each mutant by incubating HEK cells stably expressing ASIC3 or CHO cells transfected with mutant ASIC3 with 30 µM WRPRFa before a pH 6.3 acid stimulus.
(§2) All mutagenesis was performed at Genscript, and sequences were verified by nanopore sequencing by Plasmidsaurus (Eugene, OR). The numbering of ASIC3 amino acids is based on RefSeq NP_004760.1. Plasmids were transfected into CHO cells using Lipofectamine 3000 (Thermo) according to the manufacturer’s protocol. Cells were used for patch-clamp recordings 24–48 h after transfection.
(§3) CHO and HEK cells were tested in the whole-cell configuration on MPC platforms using an Axopatch 200B amplifier (Axon Instruments, San Jose, CA) and a Digidata 1322A or Digidata 1440A digitizer (Axon) using pClamp 9.2 or 10.7 (Molecular Devices, San Jose, CA), respectively. When testing transfected cells, red fluorescence from the cleaved mCherry reporter was used to identify cells expressing ASIC3, ASIC131, or ASIC313. For cells expressing transfected ASIC1a or ASIC2a, the green signal from the cleaved eGFP reporter was used. All electrophysiology data were analyzed with Clampfit 11.1 (Molecular Devices).

[2] = molecular target: T2, human ASIC3 (Homo sapiens, UniProt Q9UHC3); test: cell-based
T2 construct: CHO cells stably expressing human ASIC3 (NM_004769.1)
T2 sequence (Q9UHC3 1-531): T1 sequence (Q9UHC3 1-531 E416Q) with Q416E

[3] = molecular target: T3, ASIC3 E378Q (Homo sapiens, UniProt Q9UHC3, E378Q); test: MPC peptide activity on ASIC3 E378Q mutant; assay type: cell-based; conditions: read-out: EC50 (95% CI)
T3 construct: human ASIC3 (NM_004769.4); P2A-mCherry reporter (C, cleaved yes); expressed in transfected cells; host or cells: CHO cells (85050302, Sigma), transient transfection
T3 sequence (Q9UHC3 1-531 E378Q): T1 sequence (Q9UHC3 1-531 E416Q) with E378Q, Q416E
Description: as §1, §2, §3

[4] = molecular target: T4, ASIC313 (Homo sapiens, UniProt Q9UHC3); test: MPC WRPRFa concentration-response on concatemer ASIC313; assay type: cell-based; conditions: read-out: lower limit EC50
T4 construct: placing human ASIC1a and human ASIC3 ORFs in tandem; P2A-mCherry reporter (C, cleaved yes); expressed in transfected cells; host or cells: WT CHO cells (85050302, Sigma), transient transfection
T4 sequence (Q9UHC3 1-531) 1: T1 sequence (Q9UHC3 1-531 E416Q) with Q416E
T4 sequence (Q9UHC3 1-531) 2: T1 sequence (Q9UHC3 1-531 E416Q) with Q416E
Description: (§4) For peptide concentration-response curves, Bottom was set to 0 and Top was constrained to ≤ 1 for peptides that approached plateau phase or where I3s/Ipk reached 1. […] For activation- or desensitization-pH curves, Bottom was set to 0 and Top constrained to 1.

[5] = molecular target: T5, ASIC3 E78Q (Homo sapiens, UniProt Q9UHC3, E78Q); test: MPC peptide activity on ASIC3 E78Q mutant (I3s/Ipk, peak current, double mutant cycle); assay type: cell-based; conditions: read-out: EC50 (95% CI)
T5 construct: human ASIC3 (NM_004769.4); P2A-mCherry reporter (C, cleaved yes); expressed in transfected cells; host or cells: CHO cells (85050302, Sigma), transient transfection
T5 sequence (Q9UHC3 1-531 E78Q): T1 sequence (Q9UHC3 1-531 E416Q) with E78Q, Q416E
Description: We then asked which of the two WRPRFa arginines interacts with the E78/E421 pair. […] To this end, we used a double mutant cycle approach to identify coupling between site 2 or site 4 of WRPRFa with the E78/E421 pair. In this case, the double mutant cycle experiment compared the change in potency caused by single mutations in either WRPRFa or ASIC3 against the change in potency caused by simultaneous mutations in WRPRFa and ASIC3. A coupling coefficient (Ω) can be calculated by dividing the product of the WT/WRPRFa potency and double mutant potency by the product of the two single mutant potencies.
as §4

WRPRF-NH2 [WRPRFa] was tested, and the EC50 [1] was 2470 nM, the EC50 [2] was 6.22 µM and the channels affected ([2]; 100 µM, MPC) was ~90%. The EC50 [3] was 9.59 µM, the EC50 [4] was ≥ 12.6 µM and the EC50 [5] was 206 nM.
